Experimental findings from patent publication US5663149A, “Human cancer inhibitory pentapeptide heterocyclic and halophenyl amides” (priority 1994, dated 1997) are described below.

The subject of data set [1] is P388 Lymphocytic Leukemia. In words: Murine in vivo system, P388 Lymphocytic Leukemia. To be noted: P388, dose 13.0 μg/kg. The text has this: (§1) Experimental Anti-cancer Activity of Dolastatin 10 in Murine in vivo Systems, T/C (μg/kg)
For the next data set, the system named is M5076 Ovary Sarcoma. In words: Murine in vivo system, M5076 Ovary Sarcoma. The note with it: M5076, dose 26 μg/kg.
Source text: as §1

Data set [2] concerns LOX Human Melanoma Xenograft. In words: LOX Human Melanoma Xenograft in nude mouse. In kind it is in vivo. The note with it: dose 52 μg/kg.
Source text: as §1
A general note: Xenograft models place foreign cells or tissue in a host animal.

The subject of the next data set is Human Mammary Xenograft. In words: Human Mammary Xenograft in nude mouse. The format is in vivo. The note with it: dose 26 μg/kg.
Source text: as §1

A further data set has as its system OVCAR-3 (Ovarian). Description: NCI human tumor cell line growth inhibition, OVCAR-3. The format is cell-based. The note with it: Ovarian OVCAR-3, 48 hours. As to the method:
(§2) The only difference is historical usage.
(§3) Percent Growths are calculated for each dose.
(§4) This is the "baseline count", or "Tzero reading".

A further data set relates to SF-295 (CNS). In words: NCI human tumor cell line growth inhibition, SF-295. In kind it is cell-based. The note with it: CNS SF-295, 48 hours. As for the experimental part: as §2, §3, §4
In another data set the test system is NCI-H460 (Lung-NSC). In words: NCI human tumor cell line growth inhibition, NCI-H460. In kind it is cell-based. The note with it: Lung-NSC NCI-H460, 48 hours. As for the experimental part: as §2, §3, §4
Another data set concerns KM20L2 (Colon). In words: NCI human tumor cell line growth inhibition, KM20L2. In kind it is cell-based. The note with it: Colon KM20L2, 48 hours. As to the method: as §2, §3, §4
In another data set the test system is SK-MEL-5 (Melanoma). Description: NCI human tumor cell line growth inhibition, SK-MEL-5. The format is cell-based. The note with it: for GI-50 / LC-50 / TGI: Melanoma SK-MEL-5, 48 hours. As for the experimental part: as §2, §3, §4
The next data set relates to PS-388 (Mouse Leukemia). Description: P-388 mouse leukemia cell growth inhibition. The note with it: Mouse Leukemia PS-388. The format is cell-based. As to the method: as §2, §3, §4
The subject of another data set is A498 (Renal). To be noted: Renal A498, 48 hours.

Source text for A498 (Renal): The following measures are used to express drug activity by giving the drug dose which reduces cell growth to a specified percentage of growth:
There is no mathematical difference between ED50 and GI50, which are both calculated using the same formula. The only difference is historical usage.
TGI, (Total Growth Inhibition), is the drug dose needed to yield zero percent growth, i.e., just as many cells at the end of the experiment as were present in the beginning. Whether just as many cells were killed as were produced (steady state), or no growth occurred (total inhibition), cannot be distinguished.
Each drug is tested at five (5) doses: 100-10-1-0.1-0.01 μg/ml. Percent Growths are calculated for each dose. […] The log of the dose is used during the regression computation.
At the start of an experiment, cells from the in vitro cell cultures are inoculated into the appropriate tubes or microtiter plates. One set of control tubes/plates is immediately counted to determine the number of cells at the start of the experiment. This is the "baseline count", or "Tzero reading". At the end of the experiment (48 hours later) a second set of control tubes/plates is analyzed to determine the "Control Growth" value. The growth (or death) of cells relative to the initial quantity of cells is used to define the "Percent of Growth".

With `CC[C@H](C)[C@@H]([C@@H](CC(=O)N1CCC[C@H]1[C@H](OC)[C@@H](C)C(=O)N[C@@H](Cc1ccccc1)c1nccs1)OC)N(C)C(=O)[C@@H](NC(=O)[C@H](C(C)C)N(C)C)C(C)C` [Dolastatin 10], the “T/C outcome: toxic” value in data set [1] is reported as “toxic”; with M5076 Ovary Sarcoma, “toxic”; in [2], “toxic”; in the data set with Human Mammary Xenograft it was “Toxic”.
For orientation: TGI means the concentration giving total growth inhibition. Higher therefore signals lower sensitivity of the cells. Consider “L-Dolavalyl-L-Valyl-N-Methyl-(S,S,R)-Dolaisoleuinyl-(S,R,R)-Dolaproinyl-L- Phenylalanine N-2,5-Dichlorophenyl Amide [9h]”, for which the GI-50 in the data set with OVCAR-3 (Ovarian) turned out to be 0.0000031 µg/mL; in the data set on SF-295 (CNS), 0.0000036 µg/mL; in the data set with NCI-H460 (Lung-NSC), 0.0000029 µg/mL; in the data set on KM20L2 (Colon) it was 0.0000042 µg/mL; with SK-MEL-5 (Melanoma) it was 0.0000031 µg/mL; in the data set with A498 (Renal), 0.000016 µg/mL. Besides, the LC-50 in the data set with OVCAR-3 (Ovarian), in the data set on SF-295 (CNS), in the data set on NCI-H460 (Lung-NSC), in the data set with KM20L2 (Colon), with SK-MEL-5 (Melanoma) and with A498 (Renal) was greater than 0.0001 µg/mL in each case. In addition, the TGI with OVCAR-3 (Ovarian) was 0.017 ng/mL; with SF-295 (CNS) it was greater than 0.1 ng/mL; with NCI-H460 (Lung-NSC), 0.012 ng/mL; with KM20L2 (Colon), 0.037 ng/mL; in the data set on SK-MEL-5 (Melanoma) it was greater than 0.1 ng/mL; in the data set on A498 (Renal), greater than 0.1 ng/mL. The same compound came in with an ED-50 with PS-388 (Mouse Leukemia) of 0.0000482 µg/mL.
For “L-Dolavalyl-L-Valyl-N-Methyl-(S,S,R)-Dolaisoleuinyl-(S,R,R)-Dolaproinyl-L- Phenylalanine N-2-(6-Chloro)benzothiazole Amide [9k]”, the GI-50 in the data set with OVCAR-3 (Ovarian) stood at 0.0000043 µg/mL; in the data set on SF-295 (CNS), 0.000022 µg/mL; in the data set with NCI-H460 (Lung-NSC) it was 0.0000044 µg/mL; with KM20L2 (Colon), 0.000022 µg/mL; in the data set with SK-MEL-5 (Melanoma), 0.000003 µg/mL; in the data set with A498 (Renal) it was 0.000031 µg/mL. Further, the TGI in the data set with OVCAR-3 (Ovarian) is 0.027 ng/mL; in the data set with SF-295 (CNS), greater than 0.1 ng/mL; in the data set on NCI-H460 (Lung-NSC), 0.063 ng/mL; in the data set on KM20L2 (Colon), 0.072 ng/mL; with SK-MEL-5 (Melanoma), greater than 0.1 ng/mL; in the data set with A498 (Renal), greater than 0.1 ng/mL. Further, in the data set with PS-388 (Mouse Leukemia), the ED-50 was 0.000383 µg/mL.
Consider “L-Dolavalyl-L-Valyl-N-Methyl-(S,S,R)-Dolaisoleuinyl-(S,R,R)-Dolaproinyl-L- Phenylalanine N-2-(6-Fluoro)benzothiazole Amide [9j]”, for which the GI-50 was 0.0000031 µg/mL in the data set with OVCAR-3 (Ovarian); 0.0000044 µg/mL in the data set on SF-295 (CNS); 0.0000041 µg/mL in the data set with NCI-H460 (Lung-NSC); 0.0000033 µg/mL in the data set on KM20L2 (Colon); 0.0000013 µg/mL in the data set with SK-MEL-5 (Melanoma); 0.000016 µg/mL in the data set with A498 (Renal). The TGI with OVCAR-3 (Ovarian) is 0.012 ng/mL; in the data set with SF-295 (CNS), greater than 0.1 ng/mL; with NCI-H460 (Lung-NSC) it was 0.036 ng/mL; in the data set on KM20L2 (Colon), 0.013 ng/mL; with SK-MEL-5 (Melanoma) it was greater than 0.1 ng/mL; with A498 (Renal), greater than 0.1 ng/mL. This compound also came in with an ED-50 with PS-388 (Mouse Leukemia) of 0.000227 µg/mL.
Consider “L-Dolavalyl-L-Valyl-N-Methyl-(S,S,R)-Dolaisoleuinyl-(S,R,R)-Dolaproinyl-L- Phenylalanine N-3-Chlorophenyl Amide [9d]”, for which the GI-50 in the data set with OVCAR-3 (Ovarian) was 0.000018 µg/mL; with SF-295 (CNS), 0.000041 µg/mL; with NCI-H460 (Lung-NSC) it was 0.0000094 µg/mL; in the data set on KM20L2 (Colon) it was 0.000007 µg/mL; in the data set with SK-MEL-5 (Melanoma), less than 1e-12 µg/mL; in the data set on A498 (Renal), 0.00012 µg/mL. Besides, the LC-50 in the data set with OVCAR-3 (Ovarian), with SF-295 (CNS), with NCI-H460 (Lung-NSC), in the data set with KM20L2 (Colon), with SK-MEL-5 (Melanoma) and in the data set with A498 (Renal) was greater than 0.01 µg/mL in each case. Further, the TGI is 0.16 ng/mL in the data set on OVCAR-3 (Ovarian); greater than 1 ng/mL with SF-295 (CNS); 0.11 ng/mL in the data set on NCI-H460 (Lung-NSC); 0.19 ng/mL in the data set on KM20L2 (Colon); 5.1 ng/mL in the data set on SK-MEL-5 (Melanoma); greater than 1 ng/mL in the data set on A498 (Renal). For the same compound, the “human tumor inhibiting activity” value in the data set with SK-MEL-5 (Melanoma) (Melanoma SK-MEL-5 cell line, statement in words) is “unprecedented and extraordinary human tumor inhibiting activity”. For the same compound, the ED-50 in the data set with PS-388 (Mouse Leukemia) stood at 0.00258 µg/mL.
Consider “L-Dolavalyl-L-Valyl-N-Methyl-(S,S,R)-Dolaisoleuinyl-(S,R,R)-Dolaproinyl-L- Phenylalanine N-4-Chlorophenyl Amide [9f]”, for which the GI-50 in the data set with OVCAR-3 (Ovarian) is 0.0000014 µg/mL; in the data set on SF-295 (CNS), 0.0000025 µg/mL; with NCI-H460 (Lung-NSC), 0.0000018 µg/mL; in the data set with KM20L2 (Colon), 0.0000029 µg/mL; with SK-MEL-5 (Melanoma), 0.0000002 µg/mL; in the data set on A498 (Renal) it was 0.000007 µg/mL. For the same compound, the LC-50 in the data set on OVCAR-3 (Ovarian), in the data set on SF-295 (CNS), in the data set with NCI-H460 (Lung-NSC), with KM20L2 (Colon), with SK-MEL-5 (Melanoma) and with A498 (Renal) was greater than 0.0001 µg/mL throughout. Besides, the TGI in the data set with OVCAR-3 (Ovarian) was 0.0056 ng/mL; in the data set with SF-295 (CNS), greater than 0.1 ng/mL; with NCI-H460 (Lung-NSC), 0.01 ng/mL; with KM20L2 (Colon), 0.0084 ng/mL; with SK-MEL-5 (Melanoma) it was 0.047 ng/mL; with A498 (Renal), greater than 0.1 ng/mL. In addition, the ED-50 in the data set with PS-388 (Mouse Leukemia) is 0.0000452 µg/mL.
Turning to “L-Dolavalyl-L-Valyl-N-Methyl-(S,S,R)-Dolaisoleuinyl-(S,R,R)-Dolaproinyl-L- Proline N-2-Benzothiazole Amide [9n]”, the GI-50 in the data set on OVCAR-3 (Ovarian) amounted to 0.000027 µg/mL; in the data set on SF-295 (CNS) it was 0.000035 µg/mL; with NCI-H460 (Lung-NSC), 0.000031 µg/mL; in the data set with KM20L2 (Colon) it was 0.000029 µg/mL; with SK-MEL-5 (Melanoma), 0.0000098 µg/mL; in the data set with A498 (Renal) it was 0.000081 µg/mL. The TGI is 0.079 ng/mL in the data set with OVCAR-3 (Ovarian); greater than 0.1 ng/mL in the data set on SF-295 (CNS); greater than 0.1 ng/mL in the data set with NCI-H460 (Lung-NSC); greater than 0.1 ng/mL in the data set on KM20L2 (Colon); greater than 0.1 ng/mL in the data set with SK-MEL-5 (Melanoma); greater than 0.1 ng/mL with A498 (Renal). In the data set on PS-388 (Mouse Leukemia), this compound showed an ED-50 of 0.00083 µg/mL.
As to “L-Dolavalyl-L-Valyl-N-Methyl-(S,S,R)-Dolaisoleuinyl-(S,R,R)-Dolaproinyl-L- Proline N-3-Quinoline Amide [9q]”, the GI-50 came out at 0.000086 µg/mL in the data set with OVCAR-3 (Ovarian); 0.00036 µg/mL with SF-295 (CNS); 0.0003 µg/mL in the data set on NCI-H460 (Lung-NSC); 0.00033 µg/mL with KM20L2 (Colon); 0.00011 µg/mL with SK-MEL-5 (Melanoma); 0.00041 µg/mL in the data set on A498 (Renal). Further, the LC-50 with OVCAR-3 (Ovarian), with SF-295 (CNS), with NCI-H460 (Lung-NSC), with KM20L2 (Colon), with SK-MEL-5 (Melanoma) and in the data set on A498 (Renal) was greater than 0.0001 µg/mL in each case. For the same compound, the TGI with OVCAR-3 (Ovarian), in the data set on SF-295 (CNS), in the data set with NCI-H460 (Lung-NSC), in the data set on KM20L2 (Colon), in the data set on SK-MEL-5 (Melanoma) and in the data set with A498 (Renal) was greater than 0.1 ng/mL each time. Moreover, the ED-50 with PS-388 (Mouse Leukemia) is 0.000415 µg/mL.
In the case of “L-Dolavalyl-L-Valyl-N-Methyl-(S,S,R)-Dolaisoleuinyl-(S,R,R)-Dolaproinyl-L- Valine N-3-Quinoline Amide [9r]”, the GI-50 in the data set on OVCAR-3 (Ovarian) was found to be 0.000019 µg/mL; in the data set with SF-295 (CNS), 0.000027 µg/mL; with NCI-H460 (Lung-NSC), 0.000026 µg/mL; in the data set with KM20L2 (Colon), 0.000031 µg/mL; in the data set on SK-MEL-5 (Melanoma), 0.0000057 µg/mL; in the data set with A498 (Renal) it was 0.000051 µg/mL. Also, the LC-50 in the data set with OVCAR-3 (Ovarian), in the data set with SF-295 (CNS), in the data set with NCI-H460 (Lung-NSC), in the data set with KM20L2 (Colon), in the data set with SK-MEL-5 (Melanoma) and in the data set with A498 (Renal) was greater than 0.0001 µg/mL throughout. Besides, the TGI in the data set with OVCAR-3 (Ovarian) was 0.069 ng/mL; with SF-295 (CNS), greater than 0.1 ng/mL; with NCI-H460 (Lung-NSC), greater than 0.1 ng/mL; in the data set with KM20L2 (Colon) it was greater than 0.1 ng/mL; in the data set with SK-MEL-5 (Melanoma), greater than 0.1 ng/mL; in the data set on A498 (Renal) it was greater than 0.1 ng/mL. The same compound registered an ED-50 with PS-388 (Mouse Leukemia) of 0.0041 µg/mL.
